The assay addresses Histone-lysine N-methyltransferase ASH1L (Homo sapiens, UniProt Q9NR48). Briefly: Inhibition of MOCR-fused ASH1L SET-BAH ( 2069 to 2833 amino acids) (unknown origin) expressed as in Escherichia coli BL21 (DE3) T1R cells using SAM and chicken mono/dinucleosomes incubated for 1 hr by scintillation counting assay.

Regarding `NC(=S)c1cccc(-c2cn(CC(CF)CF)c3cc(CO)ccc23)n1`, the IC50 is below 20 µM.
In the case of `NC(=S)c1cccc(-c2ccc(CCC(F)F)c3[nH]ccc23)c1` it was below 20 µM; in that of `CCCn1cnc(CC(=O)NCc2ccc3c(-c4cccc(C(N)=S)c4)cn(C4CCN(S(=O)(=O)CCC)CC4)c3c2)c1`, below 20 µM; in that of `NC(=S)c1cccc(-c2cn(CCC(F)F)c3cc(C(O)CO)ccc23)c1` (configuration not stated), below 20 µM.
Consider `CCCCn1cnc(CC(=O)NCc2ccc3c(-c4cccc(C(N)=S)c4)cn(C4CCOCC4)c3c2)c1`, for which the IC50 was below 20 µM.
On to `NC(=S)c1cccc(Oc2ccccc2)c1`, for which the IC50 was above 100 µM.
Compound `N#Cc1cccc(-c2cn(CC(CO)C(F)F)c3cc(N)ccc23)c1` (configuration not stated) gave an IC50 below 20 µM.
In the case of `NC(=S)c1cccc(-c2c[nH]c3cccnc23)c1` it was above 100 µM; in that of `Cc1cc(O)ccc1-c1cncc(C(N)=S)c1`, above 100 µM; in that of `NC(=S)c1cccc(-c2cn(CCC3CC3)c3cc(CO)ccc23)c1`, below 20 µM.
`CC(=O)NCc1ccc2c(-c3cccc(C(N)=S)c3)c[nH]c2c1` had an IC50 of 20 to 100 µM.
Compound `NC(=S)c1cccc(-c2c[nH]c3cccc(N)c23)c1` returned an IC50 above 100 µM.
In the case of `NC(=S)c1cccc(-c2cn(CC3(F)CCC3)c3cc(CO)ccc23)c1`, the IC50 was below 20 µM.
In the case of `NC(=S)c1cccc(-c2cn(CCCC(F)(F)F)c3cc(CO)ccc23)c1`, the IC50 is below 20 µM.
For the compound `NC(=S)c1cccc(-c2ccc(OCCOCCNC(=O)c3ccc(-c4c5ccc(=O)cc-5oc5cc(O)ccc45)c(C(=O)O)c3)c3[nH]ccc23)c1`, the IC50 is above 100 µM.
The value for `NC(=S)c1cccc(-c2ccc(CCC(F)F)c3[nH]c(CO)cc23)c1` was below 20 µM.
As to `Cc1ncsc1-c1ccc(CNC(=O)[C@@H]2C[C@@H](O)CN2C(=O)[C@@H](NC(=O)COCCOCCNC(=O)CCC(=O)Nc2ccc3c(-c4cccc(C(N)=S)c4)cn(CC(CF)CF)c3c2)C(C)(C)C)cc1`, the IC50 is below 20 µM.
`Cc1ccc(C(N)=S)cc1-c1cn(C2CCOCC2)c2cc(N)ccc12` had an IC50 of 20 to 100 µM.
`NC(=S)c1cccc(-c2cn(CCC(F)(F)F)c3cc(N)ccc23)c1` gave an IC50 below 20 µM.
On to `NC(=S)c1cccc(-c2ccc(O)c3[nH]ccc23)c1`, for which the IC50 lay in the range of 20 to 100 µM.
For `CS(=O)(=O)N1CCC(n2cc(-c3cccc(C(N)=S)c3)c3ccc(CNC(=O)C4CNC4)cc32)CC1`, the IC50 is below 20 µM.
In turn, `NC(=S)c1ccc(N)c(-c2cccc3[nH]ccc23)c1` came in with an IC50 above 100 µM.
The compound `NC(=S)c1cccc(-c2cccc3[nH]ccc23)c1O` came in with an IC50 above 100 µM.
`NC(=S)c1cc(-c2c[nH]c3ccccc23)ccc1N` showed an IC50 above 100 µM.
On to `CS(=O)(=O)N1CCC(n2cc(-c3cccc(C(N)=S)c3)c3cc(F)ccc32)CC1`, for which the IC50 lay within 20 to 100 µM.
`NC(=S)c1cccc(-c2cn(CC(CF)CF)c3cc(CNCCOCCOCCOCCNc4cccc5c4C(=O)N(C4CCC(=O)NC4=O)C5=O)ccc23)c1` (configuration not stated) gave an IC50 below 20 µM.
`NC(=S)c1ccc(-c2cn(CCC(F)F)c3cc(CO)ccc23)[nH]1` yielded an IC50 below 20 µM.
Take `CN(C)CCNc1ccc2c(-c3cccc(C(N)=S)c3)cn(CCCC(F)(F)F)c2c1`: the half-maximal inhibitory concentration (IC50) was above 100 µM.
`NC(=S)c1cccc(-c2cn(CC(O)(CC(F)(F)F)CC(F)(F)F)c3cc(N)ccc23)c1` showed a half-maximal inhibitory concentration (IC50) below 20 µM.
Compound `NC(=S)c1cccc(-c2cn(CC(F)(F)F)c3cc(N)ccc23)c1` had an IC50 below 20 µM.
As for `CCCS(=O)(=O)N1CCC(n2cc(-c3cccc(C(N)=S)c3)c3ccc(CNC(=O)COc4cccc5c4C(=O)N(C4CCC(=O)NC4=O)C5=O)cc32)CC1` (configuration not stated), the IC50 was below 20 µM.
For the compound `CNc1ccc(-c2cccc3[nH]ccc23)cc1C(N)=S`, the IC50 is above 100 µM.
The value for `NC(=S)c1cccc(-c2ccc(O)c3c2CCC3=O)c1` was above 100 µM; that for `CS(=O)(=O)N1CCC(n2cc(-c3cccc(C(N)=S)c3)c3ccc(CNC(=O)Cc4cc(NCC5CCCCC5)c[nH]4)cc32)CC1` was below 20 µM.
`NC(=S)c1cccc(-c2cn(C3CCN(S(=O)(=O)C(F)(F)F)CC3)c3cc(CNC(=O)Cc4ccc[nH]4)ccc23)c1` displayed an IC50 below 20 µM.
Compound `NC(=S)c1cccc(-c2ccccc2)c1` displayed an IC50 above 100 µM.
The value for `NC(=S)c1cccc(-c2cn(CC(CO)(C(F)F)C(F)F)c3cc(C(O)CCF)ccc23)c1` (configuration not stated) was below 20 µM; that for `COCc1cc2c(-c3cccc(C(N)=S)c3)cccc2n1C` was 20 to 100 µM; that for `NC(=S)c1cccc(-c2cn(CC(CF)CF)c3cc(NC(=O)c4ncc[nH]4)ccc23)c1` was below 20 µM.
Compound `NC(=S)c1cccc(-c2cc(C(F)(F)F)cc3c2ccn3CC(F)(F)F)c1` registered an IC50 of 20 to 100 µM.
Compound `NC(=S)c1c[nH]c(=O)c(-c2cn(CCC(F)F)c3cc(CO)ccc23)c1` came in with a 50% inhibitory concentration (IC50) below 20 µM.
`CCCS(=O)(=O)N1CCC(n2cc(-c3cccc(C(N)=S)c3)c3ccc(CNC(=O)CCCCc4cccc5c4C(=O)N(C4CCC(=O)NC4=O)C5=O)cc32)CC1` (configuration not stated) yielded an IC50 below 20 µM.
Turning to `CC(O)Cn1cc(-c2cccc(C(N)=S)c2)c2ccccc21` (configuration not stated), the half-inhibitory concentration (IC50) lay in the range of 20 to 100 µM.
The compound `NC(=S)c1cccc(-c2ccc(O)cc2)c1` had an IC50 above 100 µM.
In the case of `NC(=S)c1cccc(-c2cc(C(F)(F)F)cc3c2ccn3CCO)c1` it was 20 to 100 µM.
For the compound `NC(=S)c1cccc(-c2cc(C(F)(F)F)cc3[nH]ccc23)c1`, the IC50 lay within 20 to 100 µM.
In the case of `NC(=S)c1cccc(-c2ccc(S(N)(=O)=O)cc2)c1` it was above 100 µM; in that of `NC(=S)c1cccc(-c2cn(CCC(F)F)c3cc(CNS(=O)(=O)C(F)(F)F)ccc23)c1`, below 20 µM.
Take `CNCc1ccc2c(-c3cccc(C(N)=S)c3)c[nH]c2c1`: the IC50 is 20 to 100 µM.
The value for `NC(=S)c1cccc(-c2cn(CC(CF)CF)c3cc(NC(CO)CO)ccc23)c1` was below 20 µM; that for `NC(=S)c1cccc(-c2cccc3nc(N)sc23)c1` was 20 to 100 µM; that for `NC(=S)c1cccc(-c2cccc(OCc3ccccc3)c2)c1` was above 100 µM.
In turn, `NC(=S)c1cccc(-c2cn(C3CCOCC3)c3cc(-c4ccn[nH]4)ccc23)c1` showed an IC50 below 20 µM.
The value for `NC(=S)c1cccc(-c2cn(CC(CO)CO)c3cc(N)ccc23)c1` was below 20 µM; that for `NC(=S)c1cccc(-c2ccc(CCC(F)F)c3[nH]cnc23)c1` was below 20 µM; that for `Cc1cc(O)ccc1-c1cccc(C(N)=S)c1` was above 100 µM.
The value for `NC(=S)c1cccc(-c2cn(CC3CC(F)C(F)C3)c3cc(CO)ccc23)c1` (configuration not stated) was below 20 µM.
In turn, `NCc1ccc(-c2cccc(C(N)=S)c2)cc1` returned an IC50 above 100 µM.
On to `NC(=S)c1cccc(-c2cn(Cc3ccc[nH]3)c3cc(CO)ccc23)c1`, for which the IC50 is below 20 µM.
The value for `NC(=S)c1cccc(-c2cn(CC3(C(F)(F)F)CC3)c3cc(N)ccc23)c1` was below 20 µM; that for `NC(=S)c1cccc(-c2cn(CC(C(F)F)C(F)F)c3cc(N)ccc23)c1` was below 20 µM; that for `NC(=S)c1cc(-c2cn(CCC(F)F)c3cc(CO)ccc23)ccc1F` was below 20 µM.
The value for `NC(=S)c1cccc(-c2cccc3[nH]c(CO)cc23)c1` was above 100 µM.
The value for `NC(=S)c1cccc(-c2cc(CC(CF)CF)c3cc[nH]c3c2)c1` was below 20 µM; that for `NC(=S)c1cccc(-c2cn(CCC(F)F)c3cc(C(F)F)ccc23)c1` was below 20 µM.
`COc1ccccc1-c1cccc(C(N)=S)c1` had an IC50 above 100 µM.
`CC(O)COC(C)Cn1cc(-c2cccc(C(N)=S)c2)c2ccccc21` (configuration not stated) registered an IC50 of 20 to 100 µM.
For `NC(=S)c1cccc(-c2cn(CC(F)(F)F)c3cc(NCC(F)(F)F)ccc23)c1`, the IC50 was below 20 µM.
In the case of `NC(=S)c1ccsc1`, the 50% inhibitory concentration (IC50) is above 100 µM.
The value for `NC(=S)c1cccc(-c2cn(CCO)c3cc([N+](=O)[O-])ccc23)c1` was 20 to 100 µM; that for `NC(=S)c1cccc(-c2cn(C3CCNCC3)c3cc(N)ccc23)c1` was below 20 µM.
In the case of `NC(=S)c1cccc(-c2cn(CCCC(F)(F)F)c3cc(NCC(F)(F)F)ccc23)c1` it was below 20 µM.
Consider `CCCS(=O)(=O)N1CCC(n2cc(-c3cccc(C(N)=S)c3)c3ccc(N)cc32)CC1`, for which the 50% inhibitory concentration (IC50) was below 20 µM.
`CCCOc1nnc(NCc2ccc3c(-c4cccc(C(N)=S)c4)cn(C4CCN(S(C)(=O)=O)CC4)c3c2)s1` showed a concentration for half-maximal inhibition (IC50) below 20 µM.
In the case of `CS(=O)(=O)N1CCC(n2cc(-c3cccc(C(N)=S)c3)c3ccc(CNC(=O)CC4CCNC4)cc32)CC1` (configuration not stated), the IC50 is below 20 µM.
`NC(=S)c1cccc(-c2ccc(O)c3c2CCC3O)c1` (configuration not stated) yielded an IC50 above 100 µM.
In the case of `NC(=S)c1cccc(-c2cn(CC(CO)(C(F)F)C(F)F)c3cc(C(O)CC(F)F)ccc23)c1` (configuration not stated) it was below 20 µM; in that of `NC(=S)c1cc(-c2cn(CCC(F)F)c3cc(CO)ccc23)c2[nH]cnc2c1`, below 20 µM; in that of `COc1ccc(-c2cccc(C(N)=S)c2)cc1`, above 100 µM.
Turning to `NC(=S)c1cccc(-c2cccnc2)c1`, the IC50 is above 100 µM.
In turn, `NC(=S)c1cccc(-c2cccc3[nH]ccc23)c1` came in with an IC50 of 20 to 100 µM.
On to `NC(=S)c1cccc(-c2ccc(O)cc2)n1`, for which the IC50 was above 100 µM.
For the compound `CCC(O)c1ccc2c(-c3cccc(C(N)=S)c3)cn(CCC(F)F)c2c1` (configuration not stated), the IC50 was below 20 µM.
Compound `NC(=S)c1cccc(-n2cc(CCC(F)F)c3cc(CO)ccc32)c1` displayed an IC50 below 20 µM.
The value for `NC(=S)c1ccnc(-c2cn(CCC(F)F)c3cc(CO)ccc23)c1` was below 20 µM; that for `NC(=S)c1cccc(-c2cn(CCC(F)F)c3cc(CO)ccc23)n1` was below 20 µM; that for `NCc1cccc2c(-c3cccc(C(N)=S)c3)c[nH]c12` was 20 to 100 µM.
`NC(=S)c1cncc(-c2cccc3[nH]ccc23)c1`: the half-maximal inhibitory concentration (IC50) is above 100 µM.
Consider `CS(=O)(=O)N1CCC(n2cc(-c3cccc(C(N)=S)c3)c3ccc(CNC(=O)Nc4cc[nH]n4)cc32)CC1`, for which the IC50 was below 20 µM.
As to `NC(=S)c1cccc(-c2cn(C3CNC3)c3cc(CO)ccc23)c1`, the IC50 was below 20 µM.
In the case of `NC(=S)c1cccc(-n2cc(C3CCCCC3O)c3cc(CO)ccc32)c1` (configuration not stated) it was below 20 µM.
`NC(=S)c1cccc(-c2ccccn2)c1` displayed an IC50 above 100 µM.
